From patent publication US12121614B2, “Delayed release composition for peroral administration” (VICORE PHARMA AB, priority 2020, dated 2024) come the findings set out here.

This data set in a line: Dissolution studies of C21 sodium salt in buffers of different pH. It is filed as physicochemical. On the procedure:
50.7 mg of C21 sodium salt (Ardena, Riga, Latvia) was added to 900 mL of 0.09M carbonate buffer (pH 8.95) at a temperature of 37±3° C. with stirring. […] After 15 minutes of stirring, 2M acetic acid solution was added dropwise to provide a pH of 4.52. Evolution CO2 was noted. […] After additional stirring for a further 1.5 hours, 1M NaOH was added to increase pH to 6.8.
51.2 mg of C21 sodium salt was added to 900 mL of acetate buffer (pH 4.4) at the same temperature with stirring. […] After stirring for 1 hour, 1M NaOH solution was added dropwise to increase the pH to 7.2.
53.2 mg of C21 sodium salt was added to 900 mL 0.1M of HCl buffer (pH 1.0) at the same temperature with stirring. […] After 20 minutes of stirring, 1M NaOH solution was added dropwise to increase the pH to 4.5.
51.0 mg of C21 sodium salt was added to 900 mL of 0.1M citrate buffer (pH 4.42) at the same temperature with stirring. The added compound formed a thin slurry. It seemed that nothing had dissolved.
50.8 mg of C21 sodium salt was added to 900 mL of an acetate buffer (pH 4.49) at the same temperature. […] After stirring for 1 hour, a 1M NaOH solution was added dropwise to increase the pH to 6.8.

Consider `CCCCOC(=O)[N-]S(=O)(=O)c1sc(CC(C)C)cc1-c1ccc(Cn2ccnc2)cc1.[Na+]` [C21 sodium salt], for which, for the setting “50.7 mg in 900 mL 0.09M carbonate buffer pH 8.95, 37±3° C., stirring”, the “dissolution behaviour on addition (A)” value is “dissolved instantly”. For the same compound, the “dissolution behaviour on addition (E)” value (50.8 mg in 900 mL acetate buffer pH 4.49, 37±3° C.) is “formed a thin slurry which floated on the surface”. Further, under “51.0 mg in 900 mL 0.1M citrate buffer pH 4.42, 37±3° C., stirring”, the “dissolution behaviour on addition (D)” value is on record as “formed a thin slurry. It seemed that nothing had dissolved”. Besides, the “dissolution behaviour on addition (B)” value (51.2 mg in 900 mL acetate buffer pH 4.4, 37±3° C., stirring) is “formed a thin slurry which was floated on the surface top”. For the same compound, under “53.2 mg in 900 mL 0.1M HCl buffer pH 1.0, 37±3° C., stirring”, the “dissolution behaviour on addition (C)” value is listed as “dissolved instantly”. Further, where the note is “(A) 1M NaOH added to pH 6.8, stirring another 1.5 hours”, the “appearance after raising pH (A)” value is recorded as “no significant change in appearance (small white particles)”. For the same compound, the “appearance after acidification (A)” value ((A) 2M acetic acid added to pH 4.52, after stirring for 1 hour) is recorded as “formation of small white particles”. For the same compound, the “appearance after raising pH (B)” value ((B) after 1 hour, 1M NaOH added to pH 7.2) was “slurry became thinner and pieces became smaller and goo-like”. Also, under “(B) pH 7.2, stirring another 1.5 hours”, the “appearance after further stirring (B)” value is “no significant change in appearance (small goo-like particles)”. Also, the “precipitation after raising pH (C)” value ((C) after 20 minutes, 1M NaOH added to pH 4.5) is given as “no precipitation was observed”. The “appearance after further stirring (C)” value ((C) pH 4.5, after stirring for 2 hours) is recorded as “solution still was clear”. Besides, for the setting “(D) citrate buffer pH 4.42, end of the experiment (7 hours)”, the “decomposition of C21 by UPLC (D)” value is listed as “no decomposition”. In addition, under “(D) citrate buffer pH 4.42, stirring for 7 hours”, the “appearance after further stirring (D)” value is given as “no significant change in appearance”. Moreover, under “(E) acetate buffer pH 4.49 then pH 6.8, end of the experiment”, the “decomposition of C21 by UPLC (E)” value was “no decomposition”. Further, where the note is “(E) after 1 hour, 1M NaOH added to pH 6.8”, the “appearance after raising pH (E)” value was “slurry became slightly thinner”. In addition, where the note is “(E) pH 6.8, stirring another hour”, the “appearance after further stirring (E)” value is “no significant change in appearance”.
